Our source for the IC50 values is BindingDB's records for patent US20250282798 (Medshine Discovery, 2025).

The IC50 is the point on the concentration scale where inhibition reaches its midpoint. Read a low IC50 as greater potency.

Sequence of Mitogen-activated protein kinase kinase kinase kinase 1 (Q92918 whole entry): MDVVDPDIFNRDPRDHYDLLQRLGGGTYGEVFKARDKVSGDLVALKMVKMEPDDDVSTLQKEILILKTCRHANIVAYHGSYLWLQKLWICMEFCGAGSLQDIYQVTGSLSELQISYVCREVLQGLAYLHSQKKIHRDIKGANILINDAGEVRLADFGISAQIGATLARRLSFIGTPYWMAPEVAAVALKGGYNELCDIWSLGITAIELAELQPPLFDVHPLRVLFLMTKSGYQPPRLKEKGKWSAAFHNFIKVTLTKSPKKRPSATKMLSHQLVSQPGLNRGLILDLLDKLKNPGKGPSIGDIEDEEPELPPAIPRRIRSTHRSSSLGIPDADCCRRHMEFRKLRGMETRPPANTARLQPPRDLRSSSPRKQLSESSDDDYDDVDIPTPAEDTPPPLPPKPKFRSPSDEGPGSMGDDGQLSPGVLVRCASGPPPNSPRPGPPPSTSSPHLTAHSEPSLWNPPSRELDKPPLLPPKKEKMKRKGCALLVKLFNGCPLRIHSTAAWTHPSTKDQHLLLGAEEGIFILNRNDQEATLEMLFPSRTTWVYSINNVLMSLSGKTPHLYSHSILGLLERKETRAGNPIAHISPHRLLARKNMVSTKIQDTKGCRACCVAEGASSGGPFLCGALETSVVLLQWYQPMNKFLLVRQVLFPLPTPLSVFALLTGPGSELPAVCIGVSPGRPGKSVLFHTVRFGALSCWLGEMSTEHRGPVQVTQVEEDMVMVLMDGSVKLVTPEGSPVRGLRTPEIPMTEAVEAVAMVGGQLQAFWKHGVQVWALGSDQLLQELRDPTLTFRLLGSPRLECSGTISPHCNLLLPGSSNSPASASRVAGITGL

This test addresses Mitogen-activated protein kinase kinase kinase kinase 1 (Homo sapiens, UniProt Q92918). Kind of test: Kinase Activity Assay. The procedure: The compound was diluted 50-fold into the kinase reaction buffer, and the mixture was shaken on a shaker for 20 minutes. The kinase was prepared with the enzyme reaction buffer. 2 μL of kinase was added to each well of a reaction plate. 1 μL of the diluted compound in the buffer was added to each well. The plate was sealed with a sealing film, centrifuged at 1000 g for 30 seconds, and placed at room temperature for 10 minutes. The mixed solution of ATP/MBP was prepared with the enzyme reaction buffer. 2 μL of the mixed solution of ATP/MBP was added to the reaction plate. The plate was sealed with a sealing film, and centrifuged at 1000 g for 30 seconds. The mixture in the plate was reacted at room temperature for 60 minutes. […] The plate was incubated at 25° C. for 40 min. […] The plate was incubated at 25° C. for 40 min. The RLU (relative luminescence unit) signal was read with a BMG microplate reader, and the signal intensity was used to characterize the activity of the kinase.
`Cn1ccc2c(-c3ncc(Nc4ccc5c(n4)OC[C@H]4COCCN54)c4c3CNC4=O)ccnc21` [US20250282798, Compound 20] gave an IC50 of 0.3 nM.

`CN1Cc2nc(Nc3ccc(-c4ccnc5c4ccn5C)c4c3C(=O)NC4)ccc2N2CCOCC2C1` (configuration not stated) [US20250282798, Compound 25]: the IC50 amounted to 0.2 nM. The IC50 values of the last two compounds are within 1.5-fold of each other.

As for `Cn1ccc2c(-c3ccc(Nc4ccc5c(n4)CNC(=O)C4COCC54)c4c3CNC4=O)ccnc21` (configuration not stated) [US20250282798, Compound 23], the IC50 came to 0.02 nM.

On to `COc1cccc(F)c1-c1ccc(Nc2ccc(N3CCOCC3)c(CN(C)C)n2)c2c1CNC2=O` [US20250282798, Compound 15], for which the IC50 worked out at 1.7 nM.

With `O=C1NCc2c(-c3cnc4cc(F)ccn34)ccc(Nc3ccc4c(n3)CNC(=O)C3COCC43)c21` (configuration not stated) [US20250282798, Compound 18], the IC50 was determined as 0.2 nM.

As to `CN1Cc2nc(Nc3ccc(-c4cnc5cc(F)ccn45)c4c3C(=O)NC4)ccc2C2COCC2C1` (configuration not stated) [US20250282798, Compound 17], the IC50 came out at 1.3 nM.

The compound `CN1Cc2nc(Nc3ccc(-c4cnc5cc(F)ccn45)c4c3C(=O)NC4)ccc2N2CCOCC2C1` (configuration not stated) [US20250282798, Compound 16] registered an IC50 of 0.8 nM.
